Measurements reported in US20050107386A1, “Methods of treating diseases and disorders by targeting multiple kinases” (priority 2003, published 2005).

Columns and labels:
Format in all cases: biochemical
CDK5/p35(h) = CDK5/p35(h) (Homo sapiens, UniProt Q00535); assay: CDK5/p35(h) kinase assay; conditions: 3 μM; percent of control kinase activity
Description: (§1) Six compounds (presumptive single agents) were tested against a panel of 50 kinases. The results are presented in Table 2; numbers for each kinase indicate the percent of control kinase activity in the presence of a 3μM concentration of the indicated agent.
(§2) Agents that target two or more different kinases are useful in the methods of the invention as described elsewhere herein. Such compounds may be identified, and their effect on certain kinases may be identified, using the assays briefly described below in Examples 4-83. Each of these assays was carried out as described in Davies et al., Biochem. J., 351:95-105 (2000). All assays were carried out at 10 μM ATP unless otherwise noted.
(§3) In a final reaction volume of 25 μl, CDK5/p35 (h) (5-10 mU) is incubated with 8 mM MOPS pH 7.0, 0.2 mM EDTA, 0.1 mg/ml histone H1, 10 mM MgAcetate and [γ-^33P-ATP] (specific activity approx. 500 cpm/pmol, concentration as required). The reaction is initiated by the addition of Mg^2+ [γ-^33P-ATP]. After incubation for 40 minutes at room temperature, the reaction is stopped by the addition of 5 μl of a 3% phosphoric acid solution. 10 μl of the reaction is then spotted onto a P30 filtermat and washed three times for 5 minutes in 75 mM phosphoric acid and once in methanol prior to drying and scintillation counting.

MAPKAP-K2(h) = MAPKAP-K2(h) (Homo sapiens, UniProt P49137); assay: MAPKAP-K2(h) kinase assay; conditions: 3 μM; percent of control kinase activity
MAPKAP-K2(h), sequence (P49137 whole entry): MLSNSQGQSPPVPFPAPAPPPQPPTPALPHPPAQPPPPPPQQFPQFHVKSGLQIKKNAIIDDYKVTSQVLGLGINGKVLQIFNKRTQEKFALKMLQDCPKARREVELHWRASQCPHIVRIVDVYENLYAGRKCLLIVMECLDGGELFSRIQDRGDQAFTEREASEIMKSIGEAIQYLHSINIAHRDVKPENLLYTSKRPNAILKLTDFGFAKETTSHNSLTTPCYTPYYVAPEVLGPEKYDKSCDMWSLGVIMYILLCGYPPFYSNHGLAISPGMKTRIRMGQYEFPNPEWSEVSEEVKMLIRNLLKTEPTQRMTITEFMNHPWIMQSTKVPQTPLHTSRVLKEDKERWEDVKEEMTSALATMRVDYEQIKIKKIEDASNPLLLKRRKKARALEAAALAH
Description: as §1, §2
as §3, with “MAPKAP-K2” for “CDK5/p35”, “50” for “8”, “Na-β-glycerophosphate” for “MOPS”, “7.5, 0.1” for “7.0, 0.2”, “EGTA, 30 μM […] (SEQ ID NO:11),” for “EDTA, 0.1 mg/ml histone H1,”, “(Specific” for “(specific”

PRAK(h) = biological target: T1, PRAK(h) (Homo sapiens, UniProt Q8IW41); assay: PRAK(h) kinase assay; conditions: 3 μM; percent of control kinase activity
T1 sequence (Q8IW41 1-473): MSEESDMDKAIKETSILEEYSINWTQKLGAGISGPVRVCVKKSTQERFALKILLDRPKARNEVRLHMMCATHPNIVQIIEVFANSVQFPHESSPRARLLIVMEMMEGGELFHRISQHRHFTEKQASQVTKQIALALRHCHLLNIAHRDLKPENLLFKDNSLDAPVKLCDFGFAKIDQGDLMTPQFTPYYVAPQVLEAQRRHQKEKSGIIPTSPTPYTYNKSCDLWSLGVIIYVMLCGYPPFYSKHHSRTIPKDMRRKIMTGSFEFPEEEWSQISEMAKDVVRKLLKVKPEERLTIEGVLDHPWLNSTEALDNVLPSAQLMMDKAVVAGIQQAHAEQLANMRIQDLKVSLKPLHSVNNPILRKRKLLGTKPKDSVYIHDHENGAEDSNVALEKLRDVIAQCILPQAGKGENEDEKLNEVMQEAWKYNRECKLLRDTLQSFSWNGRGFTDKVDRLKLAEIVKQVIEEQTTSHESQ
Description: as §1, §2
as §3, with “PRAK” for “CDK5/p35”, “50” for “8”, “Na-β-glycerophosphate” for “MOPS”, “7.5, 0.1” for “7.0, 0.2”, “EGTA, 30 μM […] (SEQ ID NO11),” for “EDTA, 0.1 mg/ml histone H1,”, “50” for “75”

Yes(h) = Yes(h) (Homo sapiens, UniProt P07947); assay: Yes(h) kinase assay; conditions: for Inhibitory activity (% of control), Yes(h): 3 μM, percent of control kinase activity
Yes(h), sequence (P07947 whole entry): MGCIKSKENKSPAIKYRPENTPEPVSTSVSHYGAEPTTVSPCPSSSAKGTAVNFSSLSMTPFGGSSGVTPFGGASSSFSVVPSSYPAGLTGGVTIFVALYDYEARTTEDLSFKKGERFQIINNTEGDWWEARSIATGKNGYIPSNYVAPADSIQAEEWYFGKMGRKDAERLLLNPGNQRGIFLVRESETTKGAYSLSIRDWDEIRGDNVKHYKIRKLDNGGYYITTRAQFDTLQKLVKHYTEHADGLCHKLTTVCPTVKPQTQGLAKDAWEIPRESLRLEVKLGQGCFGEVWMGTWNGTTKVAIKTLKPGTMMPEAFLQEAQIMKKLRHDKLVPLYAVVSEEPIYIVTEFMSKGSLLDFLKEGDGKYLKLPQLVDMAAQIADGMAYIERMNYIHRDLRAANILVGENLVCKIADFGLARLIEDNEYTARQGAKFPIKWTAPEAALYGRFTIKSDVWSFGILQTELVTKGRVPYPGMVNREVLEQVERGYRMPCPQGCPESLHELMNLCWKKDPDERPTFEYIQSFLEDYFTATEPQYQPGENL
Description: as §1, §2
as §3, with “Yes(h)” for “CDK5/p35 (h)”, “poly(Glu, Tyr) 4:1,” for “histone H1,”, “(Specific” for “(specific”, “Filtermat A” for “P30 filtermat”

Fes(h) = Fes(h) (Homo sapiens, UniProt P07332); assay: Fes(h) kinase assay; conditions: 3 μM; percent of control kinase activity
Fes(h), sequence (P07332 whole entry): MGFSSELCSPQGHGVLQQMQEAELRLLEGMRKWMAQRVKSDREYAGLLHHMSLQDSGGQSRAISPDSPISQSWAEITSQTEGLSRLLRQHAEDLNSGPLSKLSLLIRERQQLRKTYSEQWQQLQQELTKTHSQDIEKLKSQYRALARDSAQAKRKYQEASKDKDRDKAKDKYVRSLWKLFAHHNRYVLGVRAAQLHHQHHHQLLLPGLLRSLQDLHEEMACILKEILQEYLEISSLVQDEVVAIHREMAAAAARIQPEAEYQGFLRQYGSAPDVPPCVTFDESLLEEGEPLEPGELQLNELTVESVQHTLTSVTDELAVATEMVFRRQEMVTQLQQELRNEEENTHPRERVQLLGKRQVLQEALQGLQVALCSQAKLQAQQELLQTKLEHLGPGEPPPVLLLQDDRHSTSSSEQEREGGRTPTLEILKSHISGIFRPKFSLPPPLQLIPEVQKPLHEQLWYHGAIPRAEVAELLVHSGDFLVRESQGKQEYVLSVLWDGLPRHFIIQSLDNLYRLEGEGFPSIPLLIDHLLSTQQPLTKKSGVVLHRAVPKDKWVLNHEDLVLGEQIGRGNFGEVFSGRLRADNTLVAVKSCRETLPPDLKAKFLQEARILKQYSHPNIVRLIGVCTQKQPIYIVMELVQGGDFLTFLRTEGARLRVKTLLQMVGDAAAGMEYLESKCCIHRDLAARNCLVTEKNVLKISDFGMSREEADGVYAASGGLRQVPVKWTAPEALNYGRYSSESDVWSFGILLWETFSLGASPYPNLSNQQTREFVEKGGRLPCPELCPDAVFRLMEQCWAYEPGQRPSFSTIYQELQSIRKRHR
Description: as §1, §2
as §3, with “Fes(h)” for “CDK5/p35 (h)”, “poly(Glu, Tyr) 4:1,” for “histone H1,”, “Filtermat A” for “P30 filtermat”

GSK3α(h) = GSK3α(h) (Homo sapiens, UniProt P49840); assay: GSK3α(h) kinase assay; conditions: 3 μM; percent of control kinase activity
GSK3α(h), sequence (P49840 whole entry): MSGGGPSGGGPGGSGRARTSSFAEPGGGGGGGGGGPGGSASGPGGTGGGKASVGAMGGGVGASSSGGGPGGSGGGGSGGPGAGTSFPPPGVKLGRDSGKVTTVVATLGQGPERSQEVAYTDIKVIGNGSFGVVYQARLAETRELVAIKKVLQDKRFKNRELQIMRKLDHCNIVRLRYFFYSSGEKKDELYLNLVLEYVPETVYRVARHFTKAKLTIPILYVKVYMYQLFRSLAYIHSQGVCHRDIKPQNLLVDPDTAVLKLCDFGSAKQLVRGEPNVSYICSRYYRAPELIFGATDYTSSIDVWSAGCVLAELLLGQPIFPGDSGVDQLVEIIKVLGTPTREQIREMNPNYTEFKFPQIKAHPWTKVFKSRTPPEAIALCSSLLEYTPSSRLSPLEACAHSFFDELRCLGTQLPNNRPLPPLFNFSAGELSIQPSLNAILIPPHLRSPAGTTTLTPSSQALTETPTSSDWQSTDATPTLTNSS
Description: as §1, §2

CDK5/p35(h), sequence (Q00535 whole entry): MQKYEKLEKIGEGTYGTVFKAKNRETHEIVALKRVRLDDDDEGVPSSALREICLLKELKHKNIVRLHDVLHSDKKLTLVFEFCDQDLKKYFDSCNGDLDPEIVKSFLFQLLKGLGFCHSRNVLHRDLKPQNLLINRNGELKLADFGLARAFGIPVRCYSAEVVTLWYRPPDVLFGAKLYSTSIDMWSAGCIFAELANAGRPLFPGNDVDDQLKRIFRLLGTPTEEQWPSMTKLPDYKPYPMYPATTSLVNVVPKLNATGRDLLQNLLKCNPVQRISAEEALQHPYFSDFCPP
CDK5/p35(h), sequence (Q15078 whole entry partner): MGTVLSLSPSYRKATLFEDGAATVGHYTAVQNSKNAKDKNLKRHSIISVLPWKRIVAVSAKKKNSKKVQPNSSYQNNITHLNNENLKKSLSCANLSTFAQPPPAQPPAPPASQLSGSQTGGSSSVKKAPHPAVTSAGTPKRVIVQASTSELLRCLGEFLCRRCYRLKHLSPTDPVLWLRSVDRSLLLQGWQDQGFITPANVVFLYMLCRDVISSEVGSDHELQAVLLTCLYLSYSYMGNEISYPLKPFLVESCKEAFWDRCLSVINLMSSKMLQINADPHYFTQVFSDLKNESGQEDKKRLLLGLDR

Row | Compound | Inhibitory activity (% of control), CDK5/p35(h) (CDK5/p35(h)) | Inhibitory activity (% of control), MAPKAP-K2(h) (MAPKAP-K2(h)) | Inhibitory activity (% of control), PRAK(h) (PRAK(h)) | Inhibitory activity (% of control), Yes(h) (Yes(h)) | Inhibitory activity (% of control), Fes(h) (Fes(h)) | Inhibitory activity (% of control), GSK3α(h) (GSK3α(h)) | inhibitory activity against Yes, in words (Yes(h); summary of Table 2)
1 | COc1ccc2cc(-c3n[nH]c4ccc(-c5n[nH]c(CN6CCOCC6)n5)cc34)ccc2c1 [CC001, 3-(6-Methoxynaphthalen-2-yl)-5-(5-Morpholin-4-Ylmethyl-1H-[1,2,4]Triazol-3-yl)-1H-Indazole] | 7 % of control | 97 % of control | 12 % of control | 2 % of control | 34 % of control | 15 % of control | –
2 | CC(C)Cc1nc(-c2ccc3[nH]nc(-c4ccc5cc(OCCN6CCCC6)ccc5c4)c3c2)n[nH]1 [CC002, 5-(5-Isobutyl-1H-[1,2,4]Triazol-3-yl)-3-[6-(2-Pyrrolidin-1-yl-Ethoxy)-Naphthalen-2-yl]-1H-Indazole] | 16 % of control | 72 % of control | 6 % of control | −3 % of control | 10 % of control | 38 % of control | –
3 | CC(C)(C)Cc1nc(-c2ccc3[nH]nc(-c4ccc5cc(OCc6ccccn6)ccc5c4)c3c2)n[nH]1 [CC004, 5-[5-(2,2-Dimethyl-propyl)-1H-[1,2,4]triazol-3-yl]-3-[6-(pyridine-2-ylmethoxy)-naphthalen-2-yl]-1H-indazole] | 10 % of control | 108 % of control | 24 % of control | 24 % of control | 70 % of control | 65 % of control | somewhat less inhibitory activity
4 | CCN1CCC[C@H]1COc1ccc2cc(-c3n[nH]c4ccc(-c5nc(CC(C)(C)C)n[nH]5)cc34)ccc2c1 [CC005, 2-[((2s)-1-ethylpyrrolidin-2-yl)methoxy]-6-{5-[3-(2,2-Dimethylpropyl)(1H-1,2,4,-triazol-5-yl)](1H-indazol-3-yl)}naphthalene] | 8 % of control | 56 % of control | 10 % of control | 0 % of control | 8 % of control | 35 % of control | –
5 | Fc1ccc(-c2n[nH]c3ccc(-c4n[nH]c(C5CCCC5)n4)cc23)cc1 [CC006, 5-(5-Cyclopentyl-1H-[1,2,4]triazol-3-yl)-3-(4-fluoro-phenyl)-1H-indazole, reference compound] | 12 % of control | 96 % of control | 12 % of control | 57 % of control | 70 % of control | 38 % of control | –
6 | O=C(NC1CCCC1)c1cccc(-c2n[nH]c3ccc(-c4nc[nH]n4)cc23)c1 [CC007, 3-(5-(1H-1,2,4-triazol-3-yl)(1H-indazol-3-yl))phenyl-N-cyclopentylcarboxamide, reference compound] | 50 % of control | 86 % of control | 0 % of control | 50 % of control | 41 % of control | 18 % of control | –
